Measurements: PubChem BioAssay (NCI)
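Assay format: 96-well plates, 48-hour exposure. GI50 marks 50% less growth. The concentration for full growth arrest is given as TGI.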

Experiments:
Assay in all cases: growth of human tumour cells (NCI), 48 h
DU-145 prostate = system: DU-145 prostate
SK-MEL-2 melanoma = system: SK-MEL-2 melanoma
HOP-62 NSCLC = system: HOP-62 NSCLC
MDA-MB-231 breast = system: MDA-MB-231 breast
SW-620 colon = system: SW-620 colon
UO-31 renal = system: UO-31 renal
HT29 colon = system: HT29 colon
NCI-H460 lung = system: NCI-H460 lung
SK-OV-3 ovarian = system: SK-OV-3 ovarian
SN12C renal = system: SN12C renal

Row | Structure (SMILES) | GI50 (DU-145 prostate) [µM] | TGI (DU-145 prostate) [µM] | GI50 (SK-MEL-2 melanoma) [µM] | TGI (SK-MEL-2 melanoma) [µM] | GI50 (HOP-62 NSCLC) [µM] | TGI (HOP-62 NSCLC) [µM] | GI50 (MDA-MB-231 breast) [µM] | TGI (MDA-MB-231 breast) [µM] | GI50 (SW-620 colon) [µM] | TGI (SW-620 colon) [µM] | GI50 (UO-31 renal) [µM] | TGI (UO-31 renal) [µM] | GI50 (HT29 colon) [µM] | TGI (HT29 colon) [µM] | GI50 (NCI-H460 lung) [µM] | TGI (NCI-H460 lung) [µM] | GI50 (SK-OV-3 ovarian) [µM] | TGI (SK-OV-3 ovarian) [µM] | GI50 (SN12C renal) [µM] | TGI (SN12C renal) [µM]
1 | Cn1cc(-c2nc(-c3c[nH]c4ccncc34)cs2)c2cc(F)ccc21 | 1.71 | 3.14 | 1.92 | 3.58 | 1.73 | 3.3 | 1.55 | 3.1 | 1.65 | 3.4 | 1.57 | 2.92 | 1.44 | 2.93 | 1.77 | 3.42 | 1.92 | 3.37 | 1.68 | 3.32
2 | O=[N+]([O-])c1ccc2nc(/C=C(\O)c3ccccc3)c(/C=C(\O)c3ccccc3)nc2c1 | – | > 91 | – | > 82.2 | – | 35.2 | – | 39.4 | 6.11 | 61.4 | – | 31.6 | – | > 100 | – | > 81 | – | > 75.4 | – | > 100
3 | COc1ccc2oc(=Nc3ccc(F)cc3)c(C(N)=O)cc2c1 | – | > 100 | – | 74.7 | – | > 100 | – | 39.3 | – | > 100 | – | > 100 | – | > 100 | – | > 100 | – | 52.1 | – | > 100
4 | COc1ccc(S(=O)(=O)Nc2ccc(-c3csc(N4C(=O)/C(=C/c5ccccc5)N=C4c4ccccc4)n3)cc2)cc1Cl | – | 86.8 | – | > 100 | – | > 100 | – | 46.2 | – | > 100 | – | 34.1 | – | > 100 | – | > 100 | – | > 100 | – | > 100
